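Exposure lasted 48 hours, with cells grown in 96-well plates and compounds tested at five concentrations. Here, GI50 denotes the concentration required for 50% inhibition of growth.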 Activity calls are given as the source filed them. No stated cut-off is given here; in the data, active = GI50 up to about 1.1 µM and inactive = higher.
Columns and labels:
Test in all cases: NCI tumour cell line growth inhibition, 48 h
[1] = test system: SR
[2] = test system: T47D
[3] = test system: HT-29
[4] = test system: RXF 393
[5] = test system: M14
[6] = test system: NCI-H226
[7] = test system: CAKI-1
[8] = test system: 786-0
[9] = test system: PC-3
[10] = test system: UACC-62
[11] = test system: SK-MEL-28
[12] = test system: ACHN
[13] = test system: Hs-578T
[14] = test system: A498
[15] = test system: SF-295
[16] = test system: SF-539
[17] = test system: NCI/ADR-RES
[18] = test system: HCT-116
[19] = test system: SK-MEL-2

Measured: GI50

NNC(=O)CNc1cccc(Br)c1
inactive: [1] > 100 µM | [2] > 100 µM | [3] > 100 µM | [4] > 100 µM | [5] > 100 µM | [6] > 100 µM | [7] > 100 µM | [8] > 100 µM | [9] > 100 µM | [10] > 100 µM | [11] > 100 µM | [12] > 100 µM | [13] > 100 µM | [14] > 100 µM | [15] > 100 µM | [16] > 100 µM | [17] > 100 µM | [18] > 100 µM | [19] > 100 µM

OCC1OC(NC(=S)NCSCCC(F)(F)C(F)(F)C(F)(F)C(F)(F)C(F)(F)C(F)(F)F)C(O)C(O)C1O (stereo not drawn)
inactive: [1] 49.3 µM | [2] > 100 µM | [3] 34.2 µM | [4] 35.2 µM | [5] 17 µM | [7] 76 µM | [8] 45.8 µM | [9] 33.6 µM | [10] 32.7 µM | [11] 5.77 µM | [12] 35.2 µM | [13] 33.5 µM | [14] 1.77 µM | [15] 23.1 µM | [16] 16.6 µM | [17] > 100 µM | [18] 34.4 µM | [19] 51.6 µM

O=C1OCC2OC(=O)c3cc(O)c(O)c(O)c3-c3c(O)c(O)c(O)c4c3C(=O)OC(C2OC(=O)c2cc(O)c(O)c(O)c2-c2c1cc(O)c(O)c2O)C1OC(=O)c2c-4c(O)c(O)c(O)c2[C@@H]1C(O)C(O)C(O)C(O)CO (stereo partly drawn)
inactive: [1] 22.5 µM | [2] 19.1 µM | [3] 14.4 µM | [4] 19.3 µM | [5] 17.8 µM | [6] 17.6 µM | [7] 13.6 µM | [8] 17.4 µM | [9] 20.7 µM | [10] 17.8 µM | [11] 49.1 µM | [12] 16.5 µM | [13] 27.9 µM | [14] 26.4 µM | [15] 20.1 µM | [17] 22.2 µM | [18] 16.2 µM | [19] 21.6 µM

Cn1c(=O)c2c(nc3n2CCCC(=O)N3CC(O)CCl)n(C)c1=O (stereo not drawn)
inactive: [1] 50.1 µM | [2] > 100 µM | [3] > 100 µM | [4] > 100 µM | [5] > 100 µM | [6] > 100 µM | [7] > 100 µM | [8] > 100 µM | [9] > 100 µM | [10] > 100 µM | [11] > 100 µM | [12] > 100 µM | [13] > 100 µM | [14] > 100 µM | [15] > 100 µM | [17] > 100 µM | [18] > 100 µM | [19] > 100 µM

Cc1c(C)c(S(=O)(=O)N(CCCCN)OCCCN)c(C)c2c1OC(C)(C)CC2
inactive: [1] 42.7 µM | [2] 23.7 µM | [3] 17.6 µM | [5] 28.6 µM | [6] 13.1 µM | [7] 32.1 µM | [8] 13.7 µM | [9] 5.47 µM | [10] 20.7 µM | [11] 19.6 µM | [12] 20.8 µM | [13] 13.2 µM | [14] 16 µM | [15] 17.7 µM | [16] 24 µM | [17] 74.6 µM | [18] 16.6 µM | [19] 11.1 µM

Nc1nc(NCC2(CO)CC(CCc3ccccc3)C2)cc(=O)[nH]1 (stereo not drawn)
inactive: [1] > 100 µM | [2] 27.8 µM | [3] > 100 µM | [4] > 100 µM | [5] > 100 µM | [6] > 100 µM | [7] > 100 µM | [8] > 100 µM | [9] > 100 µM | [10] > 100 µM | [11] > 100 µM | [13] > 100 µM | [14] > 100 µM | [15] > 100 µM | [17] > 100 µM | [18] > 100 µM | [19] > 100 µM

COc1ccc(N2C=Nn3c(nc4sc5c(c4c3=O)CCCC5)C2)cc1
inactive: [1] > 100 µM | [2] > 100 µM | [3] > 100 µM | [4] 15.4 µM | [5] 32.5 µM | [6] 84.3 µM | [7] 40.4 µM | [8] 5.77 µM | [9] > 100 µM | [10] 12.2 µM | [11] > 100 µM | [12] 12.1 µM | [13] 3.02 µM | [14] 14 µM | [15] 18.3 µM | [17] > 100 µM | [18] 19.4 µM | [19] 21.3 µM

CC[C@@H](/C=C\CCC1(C[C@@H](N)CCC=C(C)C)OCCO1)O[Si](C(C)C)(C(C)C)C(C)C
inactive: [1] 3.27 µM | [2] 23.2 µM | [3] 17.3 µM | [4] 19.4 µM | [5] 18.5 µM | [6] 17.4 µM | [7] 18.8 µM | [8] 17.4 µM | [9] 16.1 µM | [10] 17.8 µM | [11] 18 µM | [12] 18 µM | [13] 26 µM | [14] 18.2 µM | [15] 19 µM | [16] 17.7 µM | [17] 16.8 µM | [18] 17.1 µM | [19] 17.3 µM

CC(=O)OCC1OC(N2C(=O)/C(=C\c3ccc(Cl)cc3)C(N)=Nc3ccccc32)C(OC(C)=O)C(OC(C)=O)C1OC(C)=O (stereo not drawn)
inactive: [1] 16.4 µM | [2] 12.4 µM | [3] 25.7 µM | [4] 4.34 µM | [5] 20.2 µM | [7] 37.3 µM | [8] 17.7 µM | [9] 20.6 µM | [10] 29.4 µM | [11] 26.1 µM | [12] 20.2 µM | [13] 28.4 µM | [14] 44.6 µM | [15] 38.8 µM | [16] 10.1 µM | [17] 51.1 µM | [18] 16.6 µM | [19] 25.4 µM

CN(/N=C(\C(=O)O)c1ccccc1)C1=NCCCCN1
inactive: [1] > 100 µM | [2] > 100 µM | [3] > 100 µM | [4] > 100 µM | [6] > 100 µM | [7] > 100 µM | [8] > 100 µM | [9] > 100 µM | [10] > 100 µM | [11] > 100 µM | [12] > 100 µM | [13] > 100 µM | [14] > 100 µM | [15] > 100 µM | [16] > 100 µM | [17] > 100 µM | [18] > 100 µM | [19] > 100 µM

O=C(Nc1nn(C(=O)c2ccc(Cl)cc2)c(=O)s1)c1ccc(Cl)cc1
inactive: [1] > 100 µM | [2] > 100 µM | [3] > 100 µM | [4] 46.9 µM | [5] > 100 µM | [6] > 100 µM | [7] > 100 µM | [8] > 100 µM | [9] > 100 µM | [10] > 100 µM | [11] > 100 µM | [12] > 100 µM | [13] > 100 µM | [14] > 100 µM | [15] > 100 µM | [17] > 100 µM | [18] > 100 µM

Source: ChEMBL document CHEMBL1201862, “PubChem BioAssay data set” (2004)
